One molecule from BindingDB's records for patent US9108978 (Monash University, 2015) can be followed below.

The target in the assay is T1, Bifunctional ligase/repressor BirA (Staphylococcus aureus, UniProt A0A3A5LBF0).
T1 sequence (A0A3A5LBF0 whole entry): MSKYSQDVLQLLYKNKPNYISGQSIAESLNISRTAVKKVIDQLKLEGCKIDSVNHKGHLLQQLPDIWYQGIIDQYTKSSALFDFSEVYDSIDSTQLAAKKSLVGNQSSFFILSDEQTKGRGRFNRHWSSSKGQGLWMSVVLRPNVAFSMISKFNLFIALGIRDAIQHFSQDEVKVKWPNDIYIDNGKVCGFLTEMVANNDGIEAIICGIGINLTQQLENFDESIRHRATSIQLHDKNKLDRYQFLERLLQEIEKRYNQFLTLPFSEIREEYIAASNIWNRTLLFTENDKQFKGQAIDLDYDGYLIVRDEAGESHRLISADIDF
As to the kind of experiment: Enzyme Inhibition Assay. The note with it: pH 8; 37 °C. Here is the method:
The reaction was initiated by the addition of BPL to a final concentration of 4 nM. After 20 minutes at 37 C., 4 uL aliquots of the reaction were spotted onto Whatman paper pre-treated with biotin and trichloroacetic acid. The filters were washed twice with 10% v/v ice-cold trichloroacetic acid and once with ethanol before air-drying. Quantitation of protein-bound radiolabelled biotin was performed by liquid scintillation. One unit of enzyme activity was defined by the amount of BPL required to incorporate 1 nmol of biotin per minute. The IC50 value of each compound was determined.

One may read the IC50 as the concentration that gives 50% inhibition. Broadly, the Ki is the dissociation constant of the complex between target and ligand, obtained from inhibition or displacement. `Nc1ncnc2c1ncn2[C@@H]1O[C@H](COP(=O)(O)OCCCCC[C@@H]2SC[C@@H]3NC(=O)N[C@@H]32)[C@@H](O)[C@H]1O` [US9108978, 2.02]: the half-inhibitory concentration (IC50) was found to be 203 nM and the Ki worked out at 30 nM.
